In patent US20090105476A1, “Organic Compounds” (Novartis AG, priority 2006, published 2009):
Counter-ions that a name gives are not always drawn.

What follows are compounds tested against adenosine A2A receptor (Homo sapiens, UniProt P29274) (assay: A2A receptor agonist assay by the method of L. J. Murphree et al, Molecular Pharmacology 61, 455-462 (2002)). Settings: Mol. Pharmacol. 61, 455-462 (2002).
Format: binding
Source text: Compounds of formula I and their pharmaceutically acceptable salts are useful as pharmaceuticals. In particular, they activate the adenosine A2A receptor, i.e. they act as A2A receptor agonists.

Chain of adenosine A2A receptor (P29274 whole entry): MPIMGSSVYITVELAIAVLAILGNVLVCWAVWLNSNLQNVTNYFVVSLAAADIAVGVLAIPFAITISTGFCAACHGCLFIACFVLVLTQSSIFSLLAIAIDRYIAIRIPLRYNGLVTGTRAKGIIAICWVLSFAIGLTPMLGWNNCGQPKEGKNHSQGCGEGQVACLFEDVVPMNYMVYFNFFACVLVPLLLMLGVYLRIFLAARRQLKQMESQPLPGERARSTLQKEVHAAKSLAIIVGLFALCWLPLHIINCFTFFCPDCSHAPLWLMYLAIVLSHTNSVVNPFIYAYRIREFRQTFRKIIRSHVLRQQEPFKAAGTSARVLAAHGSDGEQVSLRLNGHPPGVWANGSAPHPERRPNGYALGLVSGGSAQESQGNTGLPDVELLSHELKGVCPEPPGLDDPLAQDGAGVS

Row | Compound | Ki [nM]
1 | CS(=O)(=O)N[C@H]1C[C@@H](n2cnc3c(N)nc(Cl)nc32)[C@H](O)[C@@H]1O [Example 1, N-[(1S,2R,3S,4R)-4-(6-Amino-2-chloropurin-9-yl)-2,3-dihydroxy-cyclopentyl]-methane-sulfonamide Trifluoroacetate] | 582
2 | CCC(=O)N[C@H]1C[C@@H](n2cnc3c(N)nc(NCCc4ccccc4)nc32)[C@H](O)[C@@H]1O [Example 2, N-[(1S,2R,3S,4R)-4-(6-Amino-2-phenethlamino-purin-9-yl)-2,3-dihydroxy-cyclopentyl]-propionamide trifluoroacetate] | 18
3 | CCC(=O)N[C@H]1C[C@@H](n2cnc3c(NCC(c4ccccc4)c4ccccc4)nc(Cl)nc32)[C@H](O)[C@@H]1O [Example 4, N-{(1S,2R,3S,4R)-4-[2-chloro-6-(2,2-diphenyl-ethylamino)purin-9-yl]-2,3-dihydroxy-cyclopentyl}-propionamide] | 57
4 | CCC(=O)N[C@H]1C[C@@H](n2cnc3c(NC(CC)CC)nc(Cl)nc32)[C@H](O)[C@@H]1O [Example 14, N-{(1S,2R,3S,4R)-4-[2-chloro-6-(1-ethyl-propylamino)-purin-9-yl]-2,3-dihydroxy-cyclopentyl}-propionamide] | 690
5 | CCC(=O)N[C@H]1C[C@@H](n2cnc3c(NCC(c4ccccc4)c4ccccc4)nc(N4CC[C@@H](NC(=O)N[C@@H]5CCNC5)C4)nc32)[C@H](O)[C@@H]1O [Example 39, N-((1S,2R,3S,4R)-4-4-{6-(2,2-Diphenyl-ethylamino)-2-[(R)-3-((R)-3-pyrrolidin-3-yl)ureido)-pyrrolidin-1-yl]-purin-9-yl}-2,3-dihydroxy-cyclopentyl)-propionamide Trifluoroacetate] | 3

Next, values leading:

Row | Ki [nM] | Compound
6 | 8 | CCCCC#Cc1nc(NCC(c2ccccc2)c2ccccc2)c2ncn(C3CC(NC(=O)CC)C(O)C3O)c2n1 [Example 6, N-{(1S,2R,3S,4R)-4-[6-(2,2-Diphenyl-ethylamino-2-hex-1-ynyl-purin-9-yl]-2,3-dihydroxy-cyclopentyl}-propionamide]
7 | 3 | O=C(N[C@H]1C[C@@H](n2cnc3c(NCC(c4ccccc4)c4ccccc4)nc(Cl)nc32)[C@H](O)[C@@H]1O)C1CC1 [Example 12, Cyclopropanecarboxylic acid {(1S,2R,3S,4R)-4-[2-chloro-6-(2,2-diphenyl-ethylamino)-purin-9-yl]-2,3-dihydroxy-cyclopentyl}-amide]
8 | 8 | CCC(=O)N[C@H]1C[C@@H](n2cnc3c(NC(CC)CC)nc(NC4CCC(N)CC4)nc32)[C@H](O)[C@@H]1O (stereo partly drawn) [Example 20, N-{(1S,2R,3 S,4R)-4-[2-(4-Amino-cyclohexylamino)-6-(1-ethyl-propylamino)-purin-9-yl]-2,3-dihydroxy-cyclopentyl}-propionamide]
9 | 2 | CC(=O)N[C@H]1C[C@@H](n2cnc3c(NCC(c4ccccc4)c4ccccc4)nc(C(=O)NCCNC(=O)NC4CCN(c5ccccn5)CC4)nc32)[C@H](O)[C@@H]1O [Example 42, 9-((1R,2S,3R,4S)-4-acetylamino-2,3-dihydroxy-cyclopentyl)-6-(2,2-diphenyl-ethylamino)-9H-purine-2-carboxylic acid {2-[3-(3,4,5,6-tetra-hydro-2H-[1,2′]bipyridinyl-4-yl)-ureido]-ethyl}-amide trifluoroacetate]
10 | 4 | CCC(=O)N[C@H]1C[C@@H](n2cnc3c(NCc4cccc5ccccc45)nc(N4CC[C@@H](NC(=O)N[C@@H]5CCNC5)C4)nc32)[C@H](O)[C@@H]1O [Example 55, N-((1S,2R,3S,4R)-2,3-Dihydroxy-4-{6-[(naphthalen-1-ylmethyl)-amino]-2-[(R)-3-((R)-3-pyrrolidin-3-ylureido)-pyrrolidin-1-yl]-purin-9-yl}-cyclopentyl)-propionamide Trifluoroacetate]
11 | 9 | CCC(=O)N[C@H]1C[C@@H](n2cnc3c(NCCC(c4ccccc4)c4ccccc4)nc(NCCc4cn(CC)cn4)nc32)[C@H](O)[C@@H]1O [Example 61, N-{(1S,2R,3S,4R)-4-(6-(3,3-diphenyl-propyl-amino)-2-[2-(1-ethyl-1H-imidazol-4-yl)-ethylamino]-purin-9-yl}-2,3-dihydroxy-cyclopentyl)-propionamide trifluoroacetate]
